Data on seven compounds can be found in patent US20110086759A1, “CHEMICAL COMPOUNDS” (SYNGENTA CROP PROTECTION, INC., priority 2007, published 2011).

Common to all, as to assay type: in vivo
The subject of test [1] is Echinochloa crus-galli (ECHCG). Nature of the test: Pre-emergence biological efficacy, glasshouse pot test. Conditions: 312 h. In short, it runs like this: (§1)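 Standard soil, pots, sown then sprayed at day 1 with 1000 or 250 g/ha test compound. Glasshouse: 24/16 °C, 14 h photoperiod, 65% humidity, twice-daily watering. Evaluation day 13, 0–100 damage score.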
The subject of test [2] is Alopecurus myosuroides (ALOMY). Described as above. Particulars: 312 h. Put shortly: as §1
Test [3] concerns Amaranthus retoflexus (AMARE). The test is described as above. Particulars: Amaranthus retroflexus, 312 h. Put shortly:
as §1

In test [4] the test system is Setaria faberi (SETFA). Described as above. Particulars: 312 h. In short, it runs like this:
as §1

The test system of test [5] is Ipomea hederaceae (IPOHE). The test is described as above. Particulars: Ipomoea hederacea, 312 h. In short, it runs like this: as §1
Test [6] deals with Solanum nigrum (SOLNI). Described as above. Particulars: 312 h. In short, it runs like this: as §1
Test [7] concerns Echinochloa crus-galli (ECHCG). Kind of test: Post-emergence biological efficacy, glasshouse pot test. Conditions: 312 h. In short, it runs like this:
(§2)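 Scored 13 days after spraying on a 0 (no damage) to 100 (total damage) scale. Treatment was a post-emergence spray at 1000 or 250 g/ha, from acetone/water 50:50 plus 0.5% Tween 20, onto 8-day-old plants in soil pots. Growth at 24/16° C, 14 h photoperiod, 65% humidity, watered twice daily.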

Test [8] concerns Alopecurus myosuroides (ALOMY). The test is described as above. Conditions: 312 h. In short, it runs like this: as §2
Test [9] concerns Amaranthus retoflexus (AMARE). Described as above. Conditions: Amaranthus retroflexus, 312 h. In short, it runs like this:
as §2

For test [10], the system named is Setaria faberi (SETFA). The description is as above. Particulars: 312 h. In short, it runs like this: as §2
In test [11] the test system is Ipomea hederaceae (IPOHE). Described as above. Particulars: Ipomoea hederacea, 312 h. In short, it runs like this: as §2
For test [12], the system named is Solanum nigrum (SOLNI). The test is described as above. Particulars: 312 h. In short, it runs like this: as §2
[13] abbreviates: pre-emergence, 1,000 g/ha, evaluated after 13 days (100=total damage; 0=no damage), read-out: Percentage damage ECHCG.
Where [14] appears, read: pre-emergence, 1,000 g/ha, evaluated after 13 days (100=total damage; 0=no damage), read-out: Percentage damage ALOMY.
Setting [15] is: pre-emergence, 1,000 g/ha, evaluated after 13 days (100=total damage; 0=no damage), read-out: Percentage damage AMARE.
The mark [16] stands for this setting: pre-emergence, 1,000 g/ha, evaluated after 13 days (100=total damage; 0=no damage), read-out: Percentage damage SETFA.
Where [17] appears, read: pre-emergence, 1,000 g/ha, evaluated after 13 days (100=total damage; 0=no damage), read-out: Percentage damage IPOHE.
Where [18] appears, read: pre-emergence, 1,000 g/ha, evaluated after 13 days (100=total damage; 0=no damage), read-out: Percentage damage SOLNI.
[19] abbreviates: post-emergence, 1,000 g/ha, evaluated after 13 days (100=total damage; 0=no damage), read-out: Percentage damage caused to weed species, ECHCG.
[20] abbreviates: post-emergence, 1,000 g/ha, evaluated after 13 days (100=total damage; 0=no damage), read-out: Percentage damage caused to weed species, ALOMY.
[21] abbreviates: post-emergence, 1,000 g/ha, evaluated after 13 days (100=total damage; 0=no damage), read-out: Percentage damage caused to weed species, AMARE.
[22] abbreviates: post-emergence, 1,000 g/ha, evaluated after 13 days (100=total damage; 0=no damage), read-out: Percentage damage caused to weed species, SETFA.
[23] abbreviates: post-emergence, 1,000 g/ha, evaluated after 13 days (100=total damage; 0=no damage), read-out: Percentage damage caused to weed species, IPOHE.
The mark [24] stands for this setting: post-emergence, 1,000 g/ha, evaluated after 13 days (100=total damage; 0=no damage), read-out: Percentage damage caused to weed species, SOLNI.
Where [25] appears, read: pre-emergence, rate 1,000 g/ha, evaluated after 13 days (100=total damage to plant; 0=no damage), read-out: Percentage damage caused to weed species, ECHCG.
Setting [26] is: pre-emergence, rate 1,000 g/ha, evaluated after 13 days (100=total damage to plant; 0=no damage), read-out: Percentage damage caused to weed species, ALOMY.
Setting [27] is: pre-emergence, rate 1,000 g/ha, evaluated after 13 days (100=total damage to plant; 0=no damage), read-out: Percentage damage caused to weed species, AMARE.
The mark [28] stands for this setting: pre-emergence, rate 1,000 g/ha, evaluated after 13 days (100=total damage to plant; 0=no damage), read-out: Percentage damage caused to weed species, SETFA.
The mark [29] stands for this setting: pre-emergence, rate 1,000 g/ha, evaluated after 13 days (100=total damage to plant; 0=no damage), read-out: Percentage damage caused to weed species, IPOHE.
Setting [30] is: pre-emergence, rate 1,000 g/ha, evaluated after 13 days (100=total damage to plant; 0=no damage), read-out: Percentage damage caused to weed species, SOLNI.
Setting [31] is: Rate 1,000 g/ha, post-emergence spray, evaluated after 13 days (100=total damage to plant; 0=no damage to plant), read-out: Percentage damage caused to weed species, post-emergence, ECHCG.
Setting [32] is: Rate 1,000 g/ha, post-emergence spray, evaluated after 13 days (100=total damage to plant; 0=no damage to plant), read-out: Percentage damage caused to weed species, post-emergence, ALOMY.
Setting [33] is: Rate 1,000 g/ha, post-emergence spray, evaluated after 13 days (100=total damage to plant; 0=no damage to plant), read-out: Percentage damage caused to weed species, post-emergence, AMARE.
[34] abbreviates: Rate 1,000 g/ha, post-emergence spray, evaluated after 13 days (100=total damage to plant; 0=no damage to plant), read-out: Percentage damage caused to weed species, post-emergence, SETFA.
[35] abbreviates: Rate 1,000 g/ha, post-emergence spray, evaluated after 13 days (100=total damage to plant; 0=no damage to plant), read-out: Percentage damage caused to weed species, post-emergence, IPOHE.
Setting [36] is: Rate 1,000 g/ha, post-emergence spray, evaluated after 13 days (100=total damage to plant; 0=no damage to plant), read-out: Percentage damage caused to weed species, post-emergence, SOLNI.

With `COC(=O)c1nc(C2CC2)nc(NC2(/C=C/c3ccc(F)cc3)CC2)c1Cl` [Compound 4-20, 5-Chloro-2-cyclopropyl-4-{1-[2-(4-fluorophenyl)-ethenyl]-cyclo-propylamino}-6-methoxycarbonyl-pyrimidine], the pest or weed control at 1000 g/ha in test [1] (setting [13]) worked out at 0%; in test [2] (setting [14]) it was 0%; in test [3] (setting [15]) it was 50%; in [4] (setting [16]), 0%; in [5] (setting [17]), 50%; in [6] (setting [18]) it was 20%. Besides, the pest or weed control at 1000 g/ha in test [7] (setting [19]) stood at 50%; in test [8] (setting [20]) it was 20%; in [9] (setting [21]) it was 100%; in test [10] (setting [22]), 70%; in [11] (setting [23]), 100%; in test [12] (setting [24]), 80%.

Take `COC(=O)c1nc(C2CC2)nc(N(C)Cc2ccccc2F)c1Cl` [Compound 5-64, 5-Chloro-2-cyclo-propyl-4-[N-(2-fluorophenylmethyl)-N-methyl]-6-methoxy-carbonylpyrimidine]: the pest or weed control at 1000 g/ha in test [1] (setting [25]) is 20%; in [2] (setting [26]), 10%; in test [3] (setting [27]), 70%; in test [4] (setting [28]), 10%; in [5] (setting [29]), 80%; in [6] (setting [30]) it was 70%. Further, the pest or weed control at 1000 g/ha in [7] (setting [31]) amounted to 80%; in test [8] (setting [32]), 20%; in test [9] (setting [33]), 100%; in test [10] (setting [34]), 90%; in test [11] (setting [35]), 100%; in [12] (setting [36]) it was 90%.

As for `COC(=O)c1nc(-c2ccc(Cl)c(C)c2)nc(NCc2ccco2)c1Cl` [Compound 216-48, 5-Chloro-2-(4-chloro-3-methylphenyl)-4-(furan-2-ylmethyl-amino)-6-methoxy-carbonylpyrimidine], the pest or weed control at 1000 g/ha was 30% in test [1] (setting [25]); 0% in [2] (setting [26]); 30% in test [3] (setting [27]); 30% in [4] (setting [28]); 0% in test [5] (setting [29]); 30% in [6] (setting [30]). In addition, the pest or weed control at 1000 g/ha in test [7] (setting [31]) was found to be 30%; in [8] (setting [32]) it was 10%; in test [9] (setting [33]) it was 100%; in [10] (setting [34]) it was 10%; in [11] (setting [35]) it was 30%; in test [12] (setting [36]), 60%.

In the case of `COC(=O)c1nc(C2CC2)nc(NCC(c2ccccc2)c2ccccc2)c1Cl` [Compound 4-267, 5-Chloro-2-cyclopropyl-4-[2,2-(diphenyl)-ethylamino]-6-methoxycarbonyl-pyrimidine], the pest or weed control at 1000 g/ha in [1] (setting [13]) is 10%; in [2] (setting [14]) it was 10%; in [3] (setting [15]) it was 90%; in [4] (setting [16]), 10%; in test [5] (setting [17]), 60%; in [6] (setting [18]) it was 60%. Further, the pest or weed control at 1000 g/ha in test [7] (setting [19]) turned out to be 10%; in test [8] (setting [20]), 10%; in test [9] (setting [21]), 90%; in [10] (setting [22]), 20%; in test [11] (setting [23]) it was 70%; in [12] (setting [24]), 80%.

`COC(=O)c1nc(C2CC2)nc(NCc2cc(F)cc(F)c2)c1Cl` [Compound 4-100, 5-Chloro-2-cyclopropyl-4-(3,5-difluorophenylmeth-ylamino)-6-methoxy-carbonylpyrimidine]: the pest or weed control at 1000 g/ha in test [1] (setting [13]) was found to be 40%; in test [2] (setting [14]) it was 20%; in test [3] (setting [15]), 70%; in [4] (setting [16]), 20%; in test [5] (setting [17]), 50%; in test [6] (setting [18]) it was 60%. In addition, the pest or weed control at 1000 g/ha in test [7] (setting [19]) was found to be 70%; in [8] (setting [20]) it was 30%; in [9] (setting [21]), 100%; in test [10] (setting [22]), 100%; in [11] (setting [23]) it was 100%; in [12] (setting [24]), 100%.

On to `COC(=O)c1nc(C2CC2)nc(NCc2c(C)cc(Cl)cc2Cl)c1Cl` [Compound 4-121, 5-Chloro-2-cyclopropyl-4-(2,4-dichloro-6-methylphenylmethyl-amino)-6-methoxy-carbonylpyrimidine], for which the pest or weed control at 1000 g/ha came out at 0% in test [1] (setting [13]); 0% in [2] (setting [14]); 20% in [3] (setting [15]); 0% in [4] (setting [16]); 20% in [5] (setting [17]); 0% in [6] (setting [18]). In addition, the pest or weed control at 1000 g/ha turned out to be 60% in [7] (setting [19]); 20% in test [8] (setting [20]); 100% in test [9] (setting [21]); 70% in test [10] (setting [22]); 100% in test [11] (setting [23]); 90% in test [12] (setting [24]).

`COC(=O)c1nc(-c2ccc(C)cc2)nc(NCc2ccco2)c1Cl` [Compound 237-48, 5-Chloro-4-(furan-2-ylmethylamino)-6-methoxycarbonyl-2-(4-methylphenyl)-pyrimidine]: the pest or weed control at 1000 g/ha is 20% in test [1] (setting [25]); 20% in test [2] (setting [26]); 100% in test [3] (setting [27]); 0% in test [4] (setting [28]); 30% in test [5] (setting [29]); 0% in test [6] (setting [30]). Further, the pest or weed control at 1000 g/ha worked out at 0% in [7] (setting [31]); 0% in test [8] (setting [32]); 100% in test [9] (setting [33]); 0% in test [10] (setting [34]); 70% in [11] (setting [35]); 60% in [12] (setting [36]).
